Data as given in ChEMBL document CHEMBL4043168, “The design and SAR of a novel series of 2-aminopyridine based LRRK2 inhibitors” (Bioorg Med Chem Lett, 2017).

Assays:
[1] = target: NUAK family SNF1-like kinase 2 (Homo sapiens) (UniProt Q9H093); test: Inhibition of NuaK2 conserved Lys1 (LVAIKSIR) in human PBMC at 1 uM
[2] = target: Serine/threonine-protein kinase Nek4 (Homo sapiens) (UniProt P51957); test: Inhibition of NEK4 conserved Lys2 (DLKTQNVFLTR) in human PBMC at 0.1 uM
[3] = target: T1, Mitogen-activated protein kinase kinase kinase 6 (Homo sapiens) (UniProt O95382); test: Inhibition of MAP3K6 conserved Lys2 (DIKGDNVLINTFSGLLK) in human PBMC at 0.1 uM
T1 sequence (whole entry): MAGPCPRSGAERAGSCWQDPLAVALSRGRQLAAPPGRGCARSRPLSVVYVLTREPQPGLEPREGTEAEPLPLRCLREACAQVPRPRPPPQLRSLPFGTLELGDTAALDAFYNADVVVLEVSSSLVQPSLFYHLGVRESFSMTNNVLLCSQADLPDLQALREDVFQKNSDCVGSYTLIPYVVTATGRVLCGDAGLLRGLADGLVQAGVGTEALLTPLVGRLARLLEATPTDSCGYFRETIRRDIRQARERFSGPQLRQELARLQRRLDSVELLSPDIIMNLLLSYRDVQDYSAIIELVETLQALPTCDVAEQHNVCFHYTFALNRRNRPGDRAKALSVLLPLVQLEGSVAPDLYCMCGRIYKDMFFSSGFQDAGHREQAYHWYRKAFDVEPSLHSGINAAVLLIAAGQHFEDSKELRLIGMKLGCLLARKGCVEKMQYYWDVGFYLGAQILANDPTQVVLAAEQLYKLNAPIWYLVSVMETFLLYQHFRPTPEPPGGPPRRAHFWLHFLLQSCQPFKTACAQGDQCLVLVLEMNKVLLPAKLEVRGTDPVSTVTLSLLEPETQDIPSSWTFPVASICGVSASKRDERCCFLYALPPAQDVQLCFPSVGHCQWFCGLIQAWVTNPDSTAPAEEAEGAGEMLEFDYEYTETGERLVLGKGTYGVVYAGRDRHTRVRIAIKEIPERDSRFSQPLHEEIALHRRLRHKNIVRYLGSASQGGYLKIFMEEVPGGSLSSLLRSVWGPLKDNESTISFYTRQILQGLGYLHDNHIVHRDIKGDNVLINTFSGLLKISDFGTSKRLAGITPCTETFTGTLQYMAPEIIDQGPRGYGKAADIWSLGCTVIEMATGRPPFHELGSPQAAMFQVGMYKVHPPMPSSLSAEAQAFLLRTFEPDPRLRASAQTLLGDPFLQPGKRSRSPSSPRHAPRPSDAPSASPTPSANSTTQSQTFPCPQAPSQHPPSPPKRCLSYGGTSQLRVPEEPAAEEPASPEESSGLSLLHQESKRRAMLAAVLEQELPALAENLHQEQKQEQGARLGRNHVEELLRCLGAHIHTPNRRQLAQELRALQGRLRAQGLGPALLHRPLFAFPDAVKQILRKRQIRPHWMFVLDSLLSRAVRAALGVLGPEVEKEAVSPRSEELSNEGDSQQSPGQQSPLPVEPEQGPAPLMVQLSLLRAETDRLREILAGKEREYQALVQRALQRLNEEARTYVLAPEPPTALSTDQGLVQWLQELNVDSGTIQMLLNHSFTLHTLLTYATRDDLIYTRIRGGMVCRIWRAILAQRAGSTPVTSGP

[4] = target: T2, Tyrosine-protein kinase JAK3 (Homo sapiens) (UniProt P52333); test: Inhibition of JAK3 domain2 conserved Lys1 (YDPLGDNTGALVAVKQLQHSGPDQQR) in human PBMC at 0.1 uM
T2 sequence (whole entry): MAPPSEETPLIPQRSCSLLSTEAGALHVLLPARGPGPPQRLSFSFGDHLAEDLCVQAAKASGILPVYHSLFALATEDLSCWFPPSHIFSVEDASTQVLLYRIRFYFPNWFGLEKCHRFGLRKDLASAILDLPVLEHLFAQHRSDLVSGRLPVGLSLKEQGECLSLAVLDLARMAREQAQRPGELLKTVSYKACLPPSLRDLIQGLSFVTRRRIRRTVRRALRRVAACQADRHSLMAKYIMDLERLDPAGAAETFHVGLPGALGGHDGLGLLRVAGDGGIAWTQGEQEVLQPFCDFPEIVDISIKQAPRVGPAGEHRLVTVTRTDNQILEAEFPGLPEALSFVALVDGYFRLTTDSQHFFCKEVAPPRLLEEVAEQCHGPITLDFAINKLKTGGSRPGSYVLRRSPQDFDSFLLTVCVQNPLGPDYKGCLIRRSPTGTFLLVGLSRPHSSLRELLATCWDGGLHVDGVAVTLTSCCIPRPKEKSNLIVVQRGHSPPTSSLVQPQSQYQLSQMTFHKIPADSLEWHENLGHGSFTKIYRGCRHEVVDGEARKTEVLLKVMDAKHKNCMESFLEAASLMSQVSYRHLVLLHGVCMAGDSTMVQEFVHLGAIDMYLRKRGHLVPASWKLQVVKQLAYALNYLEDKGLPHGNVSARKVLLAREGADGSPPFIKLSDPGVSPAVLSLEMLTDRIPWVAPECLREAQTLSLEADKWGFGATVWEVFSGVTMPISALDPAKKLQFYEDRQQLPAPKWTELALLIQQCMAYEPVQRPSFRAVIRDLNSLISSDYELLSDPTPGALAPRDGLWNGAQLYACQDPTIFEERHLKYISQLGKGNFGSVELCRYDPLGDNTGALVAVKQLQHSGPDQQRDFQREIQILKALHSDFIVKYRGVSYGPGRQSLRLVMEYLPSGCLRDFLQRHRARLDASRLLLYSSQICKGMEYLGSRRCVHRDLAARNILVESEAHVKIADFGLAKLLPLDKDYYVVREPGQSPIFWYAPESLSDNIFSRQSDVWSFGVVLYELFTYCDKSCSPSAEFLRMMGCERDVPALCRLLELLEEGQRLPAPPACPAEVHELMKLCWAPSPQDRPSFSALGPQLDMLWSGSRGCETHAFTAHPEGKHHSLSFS

[5] = target: Ribosomal protein S6 kinase beta-2 (Homo sapiens) (UniProt Q9UBS0); test: Inhibition of p70S6Kb ATP binding site (GGYGKVFQVR) in human PBMC at 1 uM
Ribosomal protein S6 kinase beta-2 (Homo sapiens), sequence (Q9UBS0 whole entry, the tested form may be a part): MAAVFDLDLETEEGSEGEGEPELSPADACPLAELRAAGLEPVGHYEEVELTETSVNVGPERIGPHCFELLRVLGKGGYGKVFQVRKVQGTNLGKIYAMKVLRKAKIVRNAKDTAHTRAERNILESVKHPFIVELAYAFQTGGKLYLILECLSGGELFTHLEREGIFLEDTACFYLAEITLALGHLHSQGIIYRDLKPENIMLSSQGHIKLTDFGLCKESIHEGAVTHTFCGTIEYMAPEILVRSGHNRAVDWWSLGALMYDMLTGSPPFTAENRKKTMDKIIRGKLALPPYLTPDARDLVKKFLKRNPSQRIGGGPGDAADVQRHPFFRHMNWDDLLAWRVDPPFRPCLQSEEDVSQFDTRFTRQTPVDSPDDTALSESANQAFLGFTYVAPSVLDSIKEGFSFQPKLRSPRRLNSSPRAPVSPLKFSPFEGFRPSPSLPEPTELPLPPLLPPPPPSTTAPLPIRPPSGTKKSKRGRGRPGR

[6] = target: Ribosomal protein S6 kinase alpha-1 (Homo sapiens) (UniProt Q15418); test: Inhibition of RSK1 domain2 conserved Lys2 (DLKPSNILYVDESGNPECLR) in human PBMC at 1 uM
Ribosomal protein S6 kinase alpha-1 (Homo sapiens), sequence (Q15418 whole entry, the tested form may be a part): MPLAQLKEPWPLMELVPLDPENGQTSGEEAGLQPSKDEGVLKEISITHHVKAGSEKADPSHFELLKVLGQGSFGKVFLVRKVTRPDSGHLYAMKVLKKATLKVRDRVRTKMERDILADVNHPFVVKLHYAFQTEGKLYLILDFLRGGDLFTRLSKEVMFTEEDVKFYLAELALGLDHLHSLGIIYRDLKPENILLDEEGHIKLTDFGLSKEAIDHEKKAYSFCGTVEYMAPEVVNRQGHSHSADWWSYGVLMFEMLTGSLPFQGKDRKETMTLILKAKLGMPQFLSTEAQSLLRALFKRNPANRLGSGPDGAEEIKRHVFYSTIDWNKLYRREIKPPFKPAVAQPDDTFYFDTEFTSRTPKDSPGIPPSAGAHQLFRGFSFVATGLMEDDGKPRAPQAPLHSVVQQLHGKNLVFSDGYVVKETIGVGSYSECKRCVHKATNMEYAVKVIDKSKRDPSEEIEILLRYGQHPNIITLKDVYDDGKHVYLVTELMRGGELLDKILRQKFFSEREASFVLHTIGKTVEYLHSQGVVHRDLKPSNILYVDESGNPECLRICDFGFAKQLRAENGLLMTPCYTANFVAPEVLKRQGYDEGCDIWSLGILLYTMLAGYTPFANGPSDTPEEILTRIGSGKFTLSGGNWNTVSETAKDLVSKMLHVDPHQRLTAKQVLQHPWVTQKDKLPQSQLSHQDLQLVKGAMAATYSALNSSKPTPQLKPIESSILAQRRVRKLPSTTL

[7] = target: Interleukin-1 receptor-associated kinase 1 (Homo sapiens) (UniProt P51617); test: Inhibition of IRAK1 conserved Lys2 (AIQFLHQDSPSLIHGDIKSSNVLLDER) in human PBMC at 1 uM
Interleukin-1 receptor-associated kinase 1 (Homo sapiens), sequence (P51617 whole entry, looked up): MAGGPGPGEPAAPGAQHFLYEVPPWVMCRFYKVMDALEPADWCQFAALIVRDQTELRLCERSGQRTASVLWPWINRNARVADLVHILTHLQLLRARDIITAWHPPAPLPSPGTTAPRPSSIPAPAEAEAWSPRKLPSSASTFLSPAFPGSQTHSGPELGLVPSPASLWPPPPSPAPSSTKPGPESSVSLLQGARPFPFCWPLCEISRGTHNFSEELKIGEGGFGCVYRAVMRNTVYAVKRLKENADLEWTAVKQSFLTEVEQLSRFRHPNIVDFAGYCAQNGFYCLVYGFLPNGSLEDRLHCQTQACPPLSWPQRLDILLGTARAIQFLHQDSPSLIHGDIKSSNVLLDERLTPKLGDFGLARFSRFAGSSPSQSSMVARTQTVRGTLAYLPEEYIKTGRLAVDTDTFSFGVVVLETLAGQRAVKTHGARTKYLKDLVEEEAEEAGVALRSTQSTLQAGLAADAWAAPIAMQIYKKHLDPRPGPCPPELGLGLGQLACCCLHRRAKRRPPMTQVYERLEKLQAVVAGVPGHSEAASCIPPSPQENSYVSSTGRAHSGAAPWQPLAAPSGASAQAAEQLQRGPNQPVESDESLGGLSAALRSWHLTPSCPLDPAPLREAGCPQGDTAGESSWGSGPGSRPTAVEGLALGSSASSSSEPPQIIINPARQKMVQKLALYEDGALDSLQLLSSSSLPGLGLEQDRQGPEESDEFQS

[8] = target: Calcium/calmodulin-dependent protein kinase type II subunit delta (Homo sapiens) (UniProt Q13557); test: Inhibition of CaMK2d labeling at conserved Lys2 (DLKPENLLLASK) in human PBMC at 0.1 uM
Calcium/calmodulin-dependent protein kinase type II subunit delta (Homo sapiens), sequence (Q13557 whole entry): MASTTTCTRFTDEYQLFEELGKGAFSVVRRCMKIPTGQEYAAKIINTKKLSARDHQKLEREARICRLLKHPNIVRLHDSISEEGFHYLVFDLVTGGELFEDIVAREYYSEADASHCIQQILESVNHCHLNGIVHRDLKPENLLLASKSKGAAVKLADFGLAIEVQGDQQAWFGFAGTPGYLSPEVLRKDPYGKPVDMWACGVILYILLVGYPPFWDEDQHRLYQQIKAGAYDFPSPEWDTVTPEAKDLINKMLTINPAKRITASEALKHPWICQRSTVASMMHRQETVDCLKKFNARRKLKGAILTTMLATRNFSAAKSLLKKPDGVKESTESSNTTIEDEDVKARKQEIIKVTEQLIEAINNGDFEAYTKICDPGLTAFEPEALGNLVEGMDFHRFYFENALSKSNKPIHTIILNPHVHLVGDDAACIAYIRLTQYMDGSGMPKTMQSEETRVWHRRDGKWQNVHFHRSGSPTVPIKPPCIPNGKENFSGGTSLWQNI

NUAK family SNF1-like kinase 2 (Homo sapiens), sequence (Q9H093 whole entry): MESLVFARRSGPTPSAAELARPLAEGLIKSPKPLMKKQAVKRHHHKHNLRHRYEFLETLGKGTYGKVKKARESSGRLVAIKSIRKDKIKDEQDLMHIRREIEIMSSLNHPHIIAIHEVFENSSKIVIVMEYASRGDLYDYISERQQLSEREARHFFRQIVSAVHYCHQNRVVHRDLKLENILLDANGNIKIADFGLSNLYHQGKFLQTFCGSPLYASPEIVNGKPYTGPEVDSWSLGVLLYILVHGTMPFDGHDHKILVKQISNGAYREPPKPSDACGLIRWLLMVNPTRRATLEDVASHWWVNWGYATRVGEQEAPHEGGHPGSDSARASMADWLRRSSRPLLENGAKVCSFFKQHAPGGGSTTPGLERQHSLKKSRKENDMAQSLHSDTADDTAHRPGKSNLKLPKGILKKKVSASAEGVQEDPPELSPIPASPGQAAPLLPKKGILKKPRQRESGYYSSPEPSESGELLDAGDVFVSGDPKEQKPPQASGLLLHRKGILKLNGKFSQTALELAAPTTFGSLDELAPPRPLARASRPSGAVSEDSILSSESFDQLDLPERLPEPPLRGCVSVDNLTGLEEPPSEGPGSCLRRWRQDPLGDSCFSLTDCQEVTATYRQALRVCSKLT
Serine/threonine-protein kinase Nek4 (Homo sapiens), sequence (P51957 whole entry, looked up): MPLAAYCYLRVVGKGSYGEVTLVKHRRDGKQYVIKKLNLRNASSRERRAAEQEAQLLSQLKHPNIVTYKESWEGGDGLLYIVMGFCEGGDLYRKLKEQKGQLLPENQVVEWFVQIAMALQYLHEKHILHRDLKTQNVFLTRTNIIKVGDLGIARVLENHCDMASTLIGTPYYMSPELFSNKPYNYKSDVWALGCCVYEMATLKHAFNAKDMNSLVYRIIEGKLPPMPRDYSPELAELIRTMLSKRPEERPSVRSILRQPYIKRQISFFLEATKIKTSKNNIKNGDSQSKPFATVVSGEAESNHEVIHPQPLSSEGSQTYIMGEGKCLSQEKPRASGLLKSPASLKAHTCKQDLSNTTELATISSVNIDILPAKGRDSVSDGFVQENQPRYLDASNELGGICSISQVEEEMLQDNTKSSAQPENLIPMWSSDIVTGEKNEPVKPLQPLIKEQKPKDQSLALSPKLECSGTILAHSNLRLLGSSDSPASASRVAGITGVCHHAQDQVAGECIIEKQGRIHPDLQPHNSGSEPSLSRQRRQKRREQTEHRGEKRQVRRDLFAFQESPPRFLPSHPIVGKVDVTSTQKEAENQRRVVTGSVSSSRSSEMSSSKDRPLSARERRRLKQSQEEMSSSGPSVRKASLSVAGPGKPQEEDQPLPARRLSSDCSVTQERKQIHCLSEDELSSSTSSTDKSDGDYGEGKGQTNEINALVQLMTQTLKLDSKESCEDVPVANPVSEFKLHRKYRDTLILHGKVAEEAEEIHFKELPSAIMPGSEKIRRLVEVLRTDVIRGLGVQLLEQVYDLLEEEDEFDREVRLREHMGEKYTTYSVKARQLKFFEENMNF

## CC(C)n1cc(-c2cc(-c3ccc(CN4CCOCC4)cc3)cnc2N)nn1
[1]
  inhibition: -8.4%
[2]
  inhibition: 5.6%
[3]
  inhibition: -0.5%
[4]
  inhibition: -8%
[5]
  inhibition: -7.8%
[6]
  inhibition: -6%
[7]
  inhibition: 17.3%
[8]
  inhibition: -7.5%
